RP-LC retention time data for 59 compounds are collected here from the METLIN SMRT retention time set (Domingo-Almenara et al. 2019).

This data set can be described thus: gradient 5% acetonitrile 3 min, to 50% in 2 min, to 85% in 15 min, held 3 min, 100 µL/min. To be noted: column: Zorbax Extend-C18 2.1 x 50 mm; eluents: water / acetonitrile, 0.1% formic acid. The essentials: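 Retention times of pure standards were taken from adduct peaks that were selected by computer and manually inspected. Over 3 months, mixtures of ~100 molecules were run by HPLC–quadrupole time-of-flight mass spectrometry in positive and negative ionization mode. The Zorbax Extend-C18 column (2.1 × 50 mm, 1.8 μm) ran at 100 μL/min in water and acetonitrile, each containing 0.1% formic acid, with 40 μL dead volume and 900 μL dwell volume.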
For `Cc1ccc(CNC(=O)C2CCN(S(=O)(=O)c3cn(C)cn3)CC2)cc1`, the RP-LC retention time is 732 s.
For `CCn1c(=O)c2cc(C(=O)NCc3ccccc3C(F)(F)F)nn2c2ccccc21` the value was 1000 s.
Consider `COCCC1(NC(=O)c2ccsc2)CCN(S(C)(=O)=O)CC1`, for which the RP-LC retention time is 691 s.
With `O=C(O)[C@H]1O[C@H](Oc2cc3oc(-c4ccccc4)cc(=O)c3c(O)c2O)[C@H](O)[C@@H](O)[C@@H]1O`, the RP-LC retention time is 658 s.
In turn, `CCn1cc(CN2CCC(C(=O)NC3CCCCCC3)CC2)c2cc(OC)ccc21` displayed an RP-LC retention time of 741 s.
`CCC1CCCCN1C(=O)CN1CCCN(Cc2cc(C)ccc2C)S1(=O)=O` (centres undefined) gave an RP-LC retention time of 1150 s.
In turn, `O=C(Cc1ccccc1Cl)NC1CCN(c2cc(-c3ccc(F)cc3)[nH]n2)C1` (centres undefined) had an RP-LC retention time of 775 s.
The compound `Cc1cc(C)cc(NC(=O)C2CCCN(c3nccnc3Sc3ccccc3)C2)c1` (centres undefined) showed an RP-LC retention time of 1200 s.
For `CCOC(=O)[C@H]1[C@H]2C=C[C@]3(CN(c4ccccc4C)C(=O)[C@@H]13)O2` the value was 717 s.
Then `CCCCNC(=O)CC1CCN(C(=O)c2[nH]c(C)cc2C)CC1`, with 719 s; and `CC1=C(c2ccc(F)cc2)S(=O)(=O)N=C1N1CCCN(C(=O)c2ccccc2C)CC1`, with 831 s; and `Cc1cc2n(n1)CCC(=O)N2CCCC(=O)NCc1cccs1`, with 637 s.
In turn, `O=C(NC1CCCCC1)c1cccc(Nc2c(-c3ccc(F)cc3)nc3cnccn23)c1` yielded an RP-LC retention time of 848 s.
Consider `COc1ccc(OC)c(S(=O)(=O)N2CCCC(C(=O)NC3CCCCC3)C2)c1` (centres undefined), for which the RP-LC retention time was determined as 867 s.
For the compound `O=C(Nc1nc2c(s1)CCc1ccccc1-2)c1ccc(S(=O)(=O)N2CCCC2)cc1`, the RP-LC retention time was 1110 s.
For `O=C1COc2ccccc2N1Cc1nc(-c2ccc(OC(F)(F)F)cc2)no1` the value was 1100 s; for `CCOc1cccc(-c2noc(Cn3ccn(Cc4ccc(Cl)cc4)c(=O)c3=O)n2)c1`, 973 s.
With `Cc1cc(S(=O)(=O)N2CCCC2c2nc(-c3cccc(Cl)c3)no2)ccc1F` (centres undefined), the RP-LC retention time came to 1240 s.
Consider `CC(C)CNC(=O)Cc1nnc(-c2ccccc2)o1`, for which the RP-LC retention time was found to be 718 s.
As for `O=C(c1cccc2[nH]ccc12)N1CCC2(CC1)N=C(c1cccc(Br)c1)NO2`, the RP-LC retention time came to 849 s.
For `O=C(Cc1c(F)cccc1Cl)N1CC(c2nc(-c3ccccc3)no2)C1` the value was 900 s.
Turning to `Cc1nnc(N2CCCC(C(=O)Nc3ccccc3Cl)C2)c2nn(-c3ccccc3)c(C)c12` (centres undefined), the RP-LC retention time came to 767 s.
`CCC1CCCCN1C(=O)c1cnc2nc(C)ccc2c1Nc1ccc(F)c(C)c1` (centres undefined) yielded an RP-LC retention time of 680 s.
Consider `CN(C)c1cccc(C(=O)NCC(=O)N2CCCc3ccccc32)c1`, for which the RP-LC retention time was 728 s.
On to `CCn1cc(C2=CCN(C(=O)NCc3ccc(C)cc3)CC2)c2cccnc21`, for which the RP-LC retention time was 873 s.
For `O=C(NCCOc1ccc(F)cc1)C(=O)Nc1ccc(Cl)cn1` the value was 912 s; for `O=c1ccn(-c2cccc(F)c2)nc1-c1nc(-c2cccc(F)c2)no1`, 906 s; for `Cc1sc(NC(=O)c2cccnc2)nc1-c1ccc2c(c1)NC(=O)C(C)O2` (centres undefined), 718 s.
For `C=Cc1ccc(CN2C(=O)CCC2c2nc(C)no2)cc1` (centres undefined) the value was 731 s; for `O=C(NCc1ccccc1Cl)C(=O)N1CCN(Cc2ccc3c(c2)OCO3)CC1`, 583 s.
As to `Cc1cc(C)c2c(N3CCCC3)nc(C(=O)Nc3ccccc3C)nc2n1`, the RP-LC retention time stood at 671 s.
`Cc1ccccc1S(=O)(=O)N1CCC(c2cc(N)on2)CC1` registered an RP-LC retention time of 779 s.
Turning to `O=S(=O)(c1cccn2c(SCc3ccccc3)nnc12)N1CCCC1`, the RP-LC retention time is 808 s.
`CC(C)NC(=O)CSC1CCc2ccccc2NC1=O` (centres undefined): the RP-LC retention time stood at 661 s.
`COC(=O)c1ccc2c(=O)n(-c3ccccc3)c(N3CCC(C(N)=O)CC3)nc2c1`: the RP-LC retention time stood at 693 s.
`COc1ccccc1N1CCN(c2cc(SCC(=O)Nc3ccc(C#N)cc3)ncn2)CC1` displayed an RP-LC retention time of 890 s.
Compound `CCN(CC)C(=O)N1CC(n2cc(C(=O)N(C)CCOC)nn2)C1` displayed an RP-LC retention time of 624 s.
For `Cc1c(Cl)cccc1NC(=O)N1CCN(C2=CC3=NCC(C)N3C=N2)CC1` (centres undefined) the value was 632 s; for `Cc1cc(C(=O)NCC2Cn3cccc3C(=O)N2C)n(C)n1` (centres undefined), 600 s.
`Cn1cnc([N+](=O)[O-])c1S(=O)(=O)Oc1cccc2ccccc12` gave an RP-LC retention time of 970 s.
For `CCc1cc(=O)n(CC(=O)Nc2ccc(OC)c(Cl)c2)c(N2CCOCC2)n1` the value was 772 s; for `CCN1c2cc(F)ccc2C(=O)NC12CCN(C(=O)c1ccc(OC)cc1)CC2`, 780 s; for `CC(C(=O)N1CCN(c2ccccn2)CC1)n1ccc2cc(S(=O)(=O)N3CCCCCC3)ccc21` (centres undefined), 738 s.
The compound `Cn1c(=O)c2c(ncn2CCCNCC(O)c2cc(O)cc(O)c2)n(C)c1=O` (centres undefined) registered an RP-LC retention time of 952 s.
The compound `O=C(Nc1cccc(N2CCCCC2=O)c1)OCc1ccccc1` registered an RP-LC retention time of 724 s.
`Cc1ccc(-c2nnc(CC(=O)NCCc3ccc(Cl)cc3)o2)cc1` registered an RP-LC retention time of 906 s.
The compound `Nc1c2ccccc2nc2ccccc12` returned an RP-LC retention time of 637 s.
Consider `O=C1NCCCCCCN(C(=O)C2CCCCC2)[C@H]2C[C@H](C(=O)N3CCc4ccccc4C3)C[C@@H]12`, for which the RP-LC retention time came to 924 s.
Turning to `COc1cc2c(cc1CNC(=O)Cn1cc(C(C)=O)c3ccccc31)OCCCO2`, the RP-LC retention time was 771 s.
Compound `Cc1cnc(C2CC2)n1C1CCCN(C(=O)NC(C)C)C1` (centres undefined) registered an RP-LC retention time of 587 s.
With `CCOC(=O)c1ccc(Nc2c(-c3cccc(O)c3)nc3cnccn23)cc1`, the RP-LC retention time is 717 s.
For `COc1ccc(NC(=O)Cn2c(=O)n(-c3ccc(C)cc3)c(=O)c3c2cc(C)n3C)cc1Cl` the value was 891 s; for `Cc1ccc(NC(=O)CN2C(=O)NC3(CCCCC3)C2=O)cc1`, 760 s.
For `CC(=O)CCCCn1cnc2c1c(=O)n(C)c(=O)n2C` the value was 672 s; for `O=C(Nc1cccc(Br)c1)C1CCN(C(=O)C2Sc3ccccc3NC2=O)CC1` (centres undefined), 857 s.
`O=[N+]([O-])c1ccccc1S(=O)(=O)Nc1cccc(-c2ccc(N3CCOCC3)nn2)c1`: the RP-LC retention time is 646 s.
Then `Cc1cccc(NS(=O)(=O)c2cc(-c3[nH]ncc3C(=O)N3CCCCC3)oc2C)c1C`, with 822 s; and `COc1ccc(-c2nc3ncccn3c2Nc2ccc3c(c2)OCCO3)cc1`, with 674 s.
Take `CCOC(=O)C1CCCN(C(=O)c2csc3nc(-c4ccc(F)cc4)cn23)C1` (centres undefined): the RP-LC retention time came to 854 s.
